These results are taken from patent US20070155739A1, “Substituted bis-amide metalloprotease inhibitors” (ALANTOS PHARMACEUTICALS, INC., priority 2005, published 2007).

The nature of data set [1]: Microsomal stability, human microsomes. Type of data set: in vitro ADME. Conditions: human microsomes 0.3 mg/mL, 1 μM compound, 60 min at 37° C. How it is done:
(§1) Assay for Microsomal Stability
(§2) For microsomal stability testing 1 μM conzentration of compound and human or rat microsomes (0.3 mg/mL, BD bioscience) are used in the in vitro assay. To ensure proper energy supply for microsomal degradation of compound, an energy regenerating system comprised of NADP, glucose 6-phosphate and glucose 6-phosphate dehydrogenase is added to samples and suspension is incubated for 60 min at 37° C. in rotary shaker. After incubation time, acetonitrile containing internal standard is added to stop metabolization by precipitation of proteins. After centrifugation step, supernatant is analysed by LC-MS/MS and percentage of compound remaining is analysed.

Data set [2] can be described thus: Microsomal stability, rat microsomes. Type of data set: in vitro ADME. Particulars: rat microsomes 0.3 mg/mL, 1 μM compound, 60 min at 37° C. On the procedure: as §1, §2
Data set [3] deals with MMP-13 (Homo sapiens, UniProt P45452). The data set can be described thus: Assay for determining MMP-13 inhibition (fluorogenic substrate). Type of data set: biochemical. On the procedure: The MMP-13 inhibiting activity of the bis-amide metalloprotease inhibiting compounds of the present invention may be measured using any suitable assay known in the art. A standard in vitro assay for MMP-13 inhibiting activity is described in Example 999 and a description of the microsomal stability assay is described in Example 999a.
Assay for Determining MMP-13 Inhibition
The typical assay for MMP-13 activity is carried out in assay buffer comprised of 50 mM Tris, pH 7.5, 150 mM NaCl, 5 mM CaCl2 and 0.05% Brij-35. Different concentrations of tested compounds are prepared in assay buffer in 50 μL aliquots. 10 μL of 40 nM stock solution of MMP-13 enzyme is added to the compound solution. The mixture of enzyme and compound in assay buffer is thoroughly mixed and incubated for 20 minutes at room temperature. Upon the completion of incubation, the assay is started by addition of 40 μL of 12.5 μM stock solution of MMP-13 fluorogenic substrate (Calbiochem Cat. No. 444235). The time-dependent increase in fluorescence is measured at the 325 nm excitation and 393 nm emission by automatic plate multireader. The IC50 values are calculated from the initial reaction rates. Selectivity assays were run in a similar manner using MMP-1, MMP-3, MMP-8, MMP-12, MMP-14 and TACE.

Data set [4] in a line: Microsomal stability, comparison in text (species not stated). Type of data set: in vitro ADME. Conditions: compared with unsubstituted Example 1040d. On the procedure: as §2
The nature of data set [5]: Cell viability, comparison. Particulars: compared with unsubstituted Example 1040d. Format: cell-based.
Setting [6] is: Table 2, methyl substitution at R^2 or R^3, read-out: IC50 (nM), Comparison of MMP-13 Activity Versus Location of Substituent (R^2 or R^3).
[7] abbreviates: Table 1, read-out: IC50 (nM), Summary of MMP-13 Activity for Compounds of Formula I.

Where two headings read alike, the source gives them in different places. Where only a bound is given, the exact number is not on record here.

As to `COc1cccc(CNC(=O)c2cc(C(=O)N[C@H](C)c3ccc(-c4nnn[nH]4)cc3)ncn2)c1` (stereo in doubt) [Example 1006], the “Human (%), microsomal stability, percentage of compound remaining” value (from here on “Human (%) … percentage of compound remaining”) in data set [1] was 93%. In data set [2], the “Rat (%), microsomal stability, percentage of compound remaining” value (shortened to “Rat (%) … percentage of compound remaining”) turned out to be 70%. For the same compound, the IC50 in data set [3] (setting [6]) is above 100 nM.

`Cc1cc(CNC(=O)c2cc(C(=O)N[C@@H](C)c3ccc(C(=O)O)cc3)ncn2)ccc1F` [Example 1000]: the IC50 in data set [3] (setting [7]) was below 200 nM.

In the case of `Cc1cc(CNC(=O)c2cc(C(=O)N[C@@H](C(N)=O)c3ccc(-c4nnn[nH]4)cc3)ncn2)ccc1F` [Example 1002], the IC50 in data set [3] (setting [7]) is below 10 nM.

As for `O=C(NCc1ccc(F)cc1)c1cc(C(=O)N[C@@H](CO)c2ccc(-c3nnn[nH]3)cc2)ncn1` [Example 1004], the IC50 in data set [3] (setting [7]) was below 200 nM.

Regarding `COc1cccc(CNC(=O)c2cc(C(=O)N[C@@H](C)c3ccc(-c4nnn[nH]4)cc3)ncn2)c1` [Example 1005], the “microsomal stability, in words” value in data set [4] is “improvements”. In addition, the “cell viability, in words” value in data set [5] is recorded as “improvements”. In addition, the concentration for half-maximal inhibition (IC50) in data set [3] (setting [6]) was below 10 nM.

Turning to `Cc1cc(CNC(=O)c2cc(C(=O)N[C@@H](C)c3ccc(-c4nnn[nH]4)cc3)ncn2)ccc1F` [Example 1007], the IC50 in data set [3] (setting [7]) is below 10 nM.

Regarding `C[C@H](NC(=O)c1cc(C(=O)NCc2ccc(F)cc2)ncn1)c1ccc(-c2nnn[nH]2)cc1` [Example 1007c], the “Human (%) … percentage of compound remaining” value in data set [1] was 100%. Further, in data set [2], the “Rat (%) … percentage of compound remaining” value is given as 90%.

For the compound `C[C@H](NC(=O)c1cc(C(=O)NCc2cccs2)ncn1)c1ccc(-c2nnn[nH]2)cc1` [Example 1007d], the IC50 in data set [3] (setting [7]) is below 1000 nM.

On to `CCc1cc(CNC(=O)c2cc(C(=O)N[C@@H](C)c3ccc(-c4nnn[nH]4)cc3)ncn2)cs1` [Example 1007o], for which the IC50 in data set [3] (setting [7]) is below 200 nM.

Turning to `Cc1cc(CNC(=O)c2cc(C(=O)N[C@@H](C)c3ccc(-c4noc(CCC(=O)O)n4)cc3)ncn2)ccc1F` [Example 1021], the IC50 in data set [3] (setting [7]) was below 200 nM.

On to `Cc1cc(CNC(=O)c2cc(C(=O)N[C@@H](C)c3ccc(C(=O)N4CCOCC4)cc3)ncn2)ccc1F` [Example 1028e], for which the IC50 in data set [3] (setting [7]) was below 200 nM.

Consider `C[C@@H](NC(=O)c1cc(C(=O)NCc2ccc(-c3nnn[nH]3)cc2)ncn1)c1ccccc1` [Example 1040a], for which the IC50 in data set [3] (setting [6]) was above 100 nM.

On to `C[C@H](NC(=O)c1cc(C(=O)NCc2ccc(-c3nnn[nH]3)cc2)ncn1)c1ccccc1` [Example 1040b], for which the “Human (%) … percentage of compound remaining” value in data set [1] came to 96%. Also, in data set [2], the “Rat (%) … percentage of compound remaining” value worked out at 96%. For the same compound, the IC50 in data set [3] (setting [6]) is below 10 nM.

Consider `COc1cccc(CNC(=O)c2cc(C(=O)NCc3ccc(-c4nnn[nH]4)cc3)ncn2)c1` [Example 1040d, pyrimidine-4,6-dicarboxylic acid 4-(3-methoxybenzylamide) 6-[4-(1H-tetrazol-5-yl)-benzylamide]], for which the “Human (%) … percentage of compound remaining” value in data set [1] is recorded as 75%. For the same compound, in data set [2], the “Rat (%) … percentage of compound remaining” value worked out at 38%.

With `O=C(NCc1ccc(F)cc1)c1cc(C(=O)NCc2ccc(-c3nnn[nH]3)cc2)ncn1` [Example 1040e], in data set [1], the “Human (%) … percentage of compound remaining” value was 98%. Besides, in data set [2], the “Rat (%) … percentage of compound remaining” value is on record as 58%.

The term IC50 denotes the point on the concentration scale where inhibition reaches its midpoint.
